Data as given in US20240011027A1, “METHODS AND COMPOSITIONS FOR RESTORING STMN2 LEVELS” (President and Fellows of Harvard College, priority 2020, published 2024).

Columns and labels:
Type in all cases: cell-based, human
[1] = tested on: STMN2 cryptic exon; experiment: RT-PCR detection of transcripts containing the STMN2 cryptic exon in hMNs treated with proteasome inhibitors
Experimental: It was then asked if cryptic exon inclusion could be contributing to decreased STMN2 levels in hMNs after proteasome inhibition. To accomplish this goal, an RT-PCR assay was developed to detect transcripts containing the cryptic exon (FIG. 5F). […] Total RNA was isolated from neurons using RNeasy Mini Kit (Qiagen) according to manufacturer's instructions. A total of 300-1000 ng of total RNA was used to synthesize cDNA by reverse transcription according to the iSCRIPT kit (Bio-rad). RT-PCR was then performed using one cryptic exon-specific primer and then analyzed using the Agilent 2200 Tapestation.

[2] = tested on: hMNs; experiment: neurite outgrowth, Sholl analysis of hMNs; settings: 10 μM; STMN2+/+ and STMN2−/− hMNs
Experimental: Given the reported role of STMN2 in regulating axonal growth by promoting the dynamic instability of microtubules (77), phenotypic assays were carried out characterizing neurite outgrowth in the STMN2−/− hMNs. After 7 days in culture, sorted hMNs were fixed and stained for β-III-tubulin to label the neuronal processes (FIG. 4E).
Individual Tuj1-positive neurons used for Sholl analyses were randomly selected and imaged using a Nikon Eclipse TE300 with a 40× objective. The neurites were traced using the ImageJ (NIH) plugin NeuronJ (78), and Sholl analysis was performed using the Sholl tool of Fiji (96), quantifying the number of intersections at intervals from the cell body. Statistical analysis was performed by comparing the number of intersections of KO clones with the parental WT line for each 10 μm interval using Prism 6 (Graph Pad, La Jolla, CA, USA). Significance was assessed by a standard Student's t-test, with a p value of p<0.05 considered as significant.

[3] = tested on: patient's motor neurons; experiment: axonal regrowth after axotomy in microfluidic devices, TDP-43 depleted patient's motor neurons; settings: for axon extension from the microchannel (regrowth after injury), mean values / axonal regrowth after injury relative to the non-targeting control ASO: patient's motor neurons treated with siTARDBP, 18 hours after axotomy; for neurite outgrowth deficits following TDP-43 depletion: FIG. 92
Experimental: Sorted motor neurons were cultured in standard neuron microfluidic devices (SND150, XONA Microfluidics) mounted on glass coverslips coated with 0.1 mg/ml poly-D-lysine (Sigma-Aldrich) and 5 μg/ml laminin (Invitrogen) at a concentration of around 250,000 neurons/device. Axotomy was performed at day 7 of culture by repeated vacuum aspiration and reperfusion of the axon chamber until axons were cut effectively without disturbing cell bodies in the soma compartment.
To test if ASO SJ+94 could rescue axonal regrowth after TDP-43 depletion and injury, the patient's motor neurons were cultured in microfluidic devices that permitted axon growth into a chamber distinct from the neuronal cell bodies (FIG. 91A). Neurons cultured for 7 days in the soma compartment of the device extended axons through the microchannels into the axon chamber. Neurons were treated with siTARDBP and ASO SJ+94 before severing axons without disturbing cell bodies in the soma compartment. The axon extension was then measured from the microchannel to assess regrowth after injury (FIG. 91B, FIG. 91D).

[4] = tested on: STMN2 RNA; experiment: qRT-PCR of full-length STMN2 after proteasome inhibition with MG-132 in patient's motor neurons; settings: patient's motor neurons; MG-132 (1 uM)
Excerpt: It was established that ASO (SJ+94) and ASO (SJ-1) suppressed cryptic splicing of STMN2 and restored full length STMN2 RNA in the patient's motor neurons when there is a reduction in nuclear TDP-43. […] Post-mortem tissue studies have shown that TDP-43 mis-localization and its aggregation in cytoplasm is a hallmark of sporadic ALS. Several groups have reported cytoplasmic aggregation of TDP-43 akin to that observed in post-mortem tissue of sporadic ALS patients occurs in response to pharmacological inhibition of the proteasome (1, 4).

[5] = tested on: STMN2 protein; experiment: immunoblot of STMN2 protein levels in patient's motor neurons following reduction of TDP-43 by siRNA; settings: patient's motor neurons after TDP-43 reduction by siRNA; compared to NTC / siRNA controls
Experimental: For analysis of TDP-43 and STMN2 protein expression levels, d10 MNs were lysed in RIPA buffer (150 mM Sodium Chloride; 1% Triton X-100; 0.5% sodium deoxycholate; 0.1% SDS; 50 mM Tris pH 8.0) containing protease and phosphatase inhibitors (Roche) for 20 min on ice, and centrifuged at high speed. 200 μL of RIPA buffer per well of 24-well culture were routinely used, which yielded ˜20 μg of total protein as determined by BCA (Thermo Scientific). After two washes with RIPA buffer, insoluble pellets were resuspended in 200 μl of UREA buffer (Bio-Rad). For immunoblot assays 2-3 μg of total protein were separated by SDS-PAGE (BioRad), transferred to PDVF membranes (BioRad) and probed with antibodies against TDP-43 (1:1000, ProteinTech Group), GAPDH (1:1000, Millipore) and STMN2 (1:3000, Novus). Insoluble pellets were loaded based on protein concentration of correspondent RIPA-soluble counterparts. The same PDVF membrane was immunoassayed 2-3 times using Restore™ PLUS Western Blot Stripping Buffer (Thermo Scientific). GAPDH levels were used to normalized each sample, and LiCor software was used to quantitate protein band signal.
After establishing and validating that the STMN2 ASOs could affect transcript levels, it was sought to determine if they could also rescue diminished protein levels observed after TDP-43 reduction. The patient's motor neurons were treated with siRNAs and either a nontargeting ASO (NTC) or one of the lead compounds from the screen (FIG. 90, FIG. 97). […] Unlike the cells treated with the non-targeting control ASO (NTC), restoration of STMN2 to the levels of the siRNA controls for the lead candidates was observed.

[6] = tested on: STMN2 transcript; experiment: qRT-PCR of truncated (cryptic) and full-length STMN2 RNA in patient's motor neurons treated with siTARDBP and ASOs; settings: for STMN2 in TDP-43 depleted neurons: FIG. 93; for cry STMN2 in TDP-43 depleted neurons: FIG. 94; for cryptic STMN2 RNA levels (cryptic splicing) / full-length STMN2 RNA levels: patient's motor neurons treated with siTARDBP, ASO 30 nM to 0.03 nM, qRT-PCR normalized using RNA18S5, relative to NTC
Experimental: In total, 51 ASOs were screened in the patient's motor neurons for their ability to (1) suppress the generation of truncated STMN2 transcript as well as (2) restore the full-length STMN2 transcript.
In the first experiment the patient's motor neurons were treated with siTARDBP, the patient's motor neurons were then cultured with the various ASOs over a range of concentrations (ranging from 30 nM to 0.03 nM) before extracting total RNA. Extracted RNA was used to synthesize cDNA by reverse transcription. qRT-PCR was used to assess levels for both truncated and full-length STMN2 RNAs normalized using RNA18S5 expression.

[7] = tested on: STMN2; experiment: STMN2 multiplexed qPCR assay in neurons after TDP-43 reduction by ASO or siRNA; settings: compared with SCR ASO
Excerpt: FIGS. 17A-17C show RNA can be readily collected from CSF-derived exosomes and then converted into cDNA to assay for full and cryptic STMN2 transcripts as well as control RNAs for normalization (FIG. 17A). […] STMN2 transcripts are normalized to the house keeping ribosomal subunit RNA18S5. TDP-43 levels were reduced in cultured human neurons using either an antisense oligonucleotide (ASO) to deplete cells of TDP-43 or an siRNAs to induce TDP-43 knockdown. […] Using the validated multiplexed qPCR assay, next RNA was isolated from CSF-derived exosomes using 300 ul patient samples to determine the levels of cryptic STMN2 (n=7 healthy controls, n=2 disease mimics and n=9 ALS patients). […] Note that even in this modest set of samples that the increase in cryptic exon expression in ALS patients was highly significant (P<0.005). […] Finally, there is an interesting “texture” to the patient data with some patients showing high levels of expression and others more normal levels. It is hypothesized that patients with lower levels may either be earlier in their disease or have non-TDP-43 disease.

CC(C)C[C@H](NC(=O)[C@H](Cc1ccccc1)NC(=O)c1cnccn1)B(O)O [Bortezomib]
transcripts containing the STMN2 cryptic exon (PCR assay) [1]: presence of transcripts containing the STMN2 cryptic exon

C[C@@H](N)[C@H]1CC[C@H](C(=O)Nc2ccncc2)CC1 [Y-27632]
neurite outgrowth (Sholl analysis) [2]: enhancing the outgrowth of the STMN^+/+ line but not the STMN^−/− line

NTC: non-targeting control ASO CCTATAGGACTATCCAGGAA (chemistry not given here) [reference compound]
axon extension from the microchannel (regrowth after injury), mean values [3]: 176 um

SJ+94: antisense oligonucleotide CATTTCTTCTTAGGCAGGCT, fully modified with MOE sugars and phosphorothioate linkages (all 2'-MOE, all phosphorothioate, methylation of C not given here)
full length STMN2 RNA levels compared to non-targeting control ASO (NTC) [4]: significantly higher levels of full length STMN2 RNA | neurite outgrowth deficits following TDP-43 depletion [3]: rescued | axonal regrowth after injury relative to the non-targeting control ASO [3]: significantly increased regrowth | STMN2 protein levels [5]: increase is significant | STMN2 in TDP-43 depleted neurons [6]: restored | cry STMN2 in TDP-43 depleted neurons [6]: reduced | cryptic STMN2 RNA levels (cryptic splicing) [6]: suppress cryptic splicing | full-length STMN2 RNA levels [6]: restore full length STMN2 RNA

SJ+101: antisense oligonucleotide TTCACATTCATTTCTTCTTAG, fully modified with MOE sugars and phosphorothioate linkages (all 2'-MOE, all phosphorothioate, methylation of C not given here)
neurite outgrowth deficits following TDP-43 depletion [3]: rescued | STMN2 protein levels [5]: increase is significant | STMN2 in TDP-43 depleted neurons [6]: restored | cry STMN2 in TDP-43 depleted neurons [6]: reduced

SJ-1: antisense oligonucleotide AGGTCTTCTGCCGAGTC C, fully modified with MOE sugars and phosphorothioate linkages (antisense AGGTCTTCTGCCGAGTCC; all 2'-MOE, all phosphorothioate, methylation of C not given here)
full-length STMN2 RNA levels, higher than non-targeting control ASO (NTC) [4]: 30% | neurite outgrowth deficits following TDP-43 depletion [3]: rescued | axon extension from the microchannel (regrowth after injury), mean values [3]: 243 um | axonal regrowth after injury relative to the non-targeting control ASO [3]: significantly increased regrowth | STMN2 protein levels [5]: increase is significant | STMN2 in TDP-43 depleted neurons [6]: restored | cry STMN2 in TDP-43 depleted neurons [6]: reduced | cryptic STMN2 RNA levels (cryptic splicing) [6]: suppressing cryptic splicing | full-length STMN2 RNA levels [6]: restoring full length STMN2 RNA

TDP-43 ASO: antisense oligonucleotide to deplete cells of TDP-43, AAGGCTTCATATTGTACTTT (chemistry not given here)
relative expression of STMN2 (Exons 3-4) [7]: STMN2 reduction | relative expression of cryptic STMN2 [7]: cryptic exon induction
